Assay results published in patent publication US12692261B2, “Substituted heterocyclic compounds and therapeutic uses thereof” (Bayer Aktiengesellschaft, priority 2020, dated 2026).
Like-named read-outs stand apart in the source and are kept apart here.

Experiments:
[1] = biological target: T1, wild-type Epidermal Growth Factor Receptor (EGFR) (Homo sapiens, UniProt P00533); test: WT-EGFR Kinase Assay (TR-FRET, 2 mM ATP); type: biochemical
T1 construct: a fragment of human EGFR (amino acids R669 to A1210); made in house; host or cells: Sf9 insect cells
Method in brief: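 GST-fused human EGFR fragment (R669-A1210) from Sf9 cells, typically 7.6 pg/μL, pre-incubated with compound 15 min at 22° C in Hepes pH 7.0 buffer with MgCl2, DTT and vanadate; biotinylated peptide substrate. After EDTA stop, phosphopeptide detected by TR-FRET (anti-phosphotyrosine Tb-cryptate/streptavidin-XL665), 665/620 nm emission ratio.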

[2] = biological target: T2, full-length human CSNK1A1 (Homo sapiens, UniProt P48729); test: CSNK1A1 Assay 2 (ADP-Glo, 1 μM ATP, substrate biotin-Ahx-KRRRAL-pS-VASLPGL); type: biochemical; conditions: Table 3, read-out: CSNK1A1 Assay 2 IC50 [mol/l] (median)
T2 construct: N-terminal Glutathion-S-Transferase (GST) and full-length human CSNK1A1; purchased Life Technologies PV4174; host or cells: baculovirus infected insect cells
Method in brief: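 Activity read as ADP generated (ADP-Glo luciferase luminescence, 1 h detection steps at 22 °C). Enzyme was insect-cell-expressed GST–full-length human CSNK1A1, compound-preincubated 15 min before reaction with phosphopeptide substrate and 1 μM ATP in 50 mM HEPES pH 7.5, 10 mM MgCl2.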

[3] = read-out: EGFR Wildtyp 2 mM ATP IC50 [mol/l] (median), Table 4
[4] = EGFR Wildtyp 2 mM ATP IC50 [mol/l] (median), Table 4

T1 sequence (P00533 669-1210): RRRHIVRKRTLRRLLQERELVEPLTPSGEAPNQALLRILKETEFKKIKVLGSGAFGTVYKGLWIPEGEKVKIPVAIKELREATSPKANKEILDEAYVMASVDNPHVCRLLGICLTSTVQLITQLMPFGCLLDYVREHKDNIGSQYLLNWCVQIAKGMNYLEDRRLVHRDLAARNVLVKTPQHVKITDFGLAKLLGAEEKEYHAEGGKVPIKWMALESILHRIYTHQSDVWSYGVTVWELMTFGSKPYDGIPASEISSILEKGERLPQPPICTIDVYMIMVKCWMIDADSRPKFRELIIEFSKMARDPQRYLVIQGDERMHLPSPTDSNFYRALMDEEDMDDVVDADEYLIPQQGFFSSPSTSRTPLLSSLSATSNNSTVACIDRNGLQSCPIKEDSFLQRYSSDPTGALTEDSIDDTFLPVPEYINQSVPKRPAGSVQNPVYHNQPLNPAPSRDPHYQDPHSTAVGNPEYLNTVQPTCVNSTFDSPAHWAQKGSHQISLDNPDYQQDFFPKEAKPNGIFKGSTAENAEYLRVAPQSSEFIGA
T2 sequence (P48729 whole entry): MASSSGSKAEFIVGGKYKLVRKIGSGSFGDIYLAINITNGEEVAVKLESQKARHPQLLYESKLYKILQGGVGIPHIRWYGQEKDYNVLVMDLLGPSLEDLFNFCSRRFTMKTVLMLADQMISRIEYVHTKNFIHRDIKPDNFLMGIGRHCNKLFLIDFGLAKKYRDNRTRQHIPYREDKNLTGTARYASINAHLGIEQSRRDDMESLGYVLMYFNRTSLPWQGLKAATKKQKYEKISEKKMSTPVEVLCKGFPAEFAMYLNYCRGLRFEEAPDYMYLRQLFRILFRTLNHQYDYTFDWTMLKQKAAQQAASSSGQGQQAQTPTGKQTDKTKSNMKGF

SMILES	IC50 [1, 3]	IC50 [2]	IC50 [1, 4]
O=C(Nc1cc(-c2[nH]c3ncc(F)nc3c2-c2ccccn2)ccn1)C(CC(F)F)c1ccc(F)cc1 (single isomer, unassigned) [Example 64, (2R or S)-4,4-difluoro-2-(4-fluorophenyl)-N-{4-[2-fluoro-7-(pyridin-2-yl)-5H-pyrrolo[2,3-b]pyrazin-6-yl]pyridin-2-yl}butanamide]	> 20000 nM	23 nM	–
O=C(Nc1cc(-c2[nH]c3c(OC[C@@H]4COCCO4)cc(F)nc3c2-c2ccccn2)ccn1)C(CC(F)F)c1ccc(F)cc1 (single isomer, unassigned) [Example 58, (2R or S)—N-{4-[7-{[(2S)-1,4-dioxan-2-yl]methoxy}-5-fluoro-3-(pyridin-2-yl)-1H-pyrrolo[3,2-b]pyridin-2-yl]pyridin-2-yl}-4,4-difluoro-2-(4-fluorophenyl)butanamide]	–	3.56 nM	> 20000 nM
O=C(Nc1cc(-c2[nH]c3c(OCC(F)F)ncnc3c2-c2ccccn2)ccn1)C(CC(F)F)c1ccc(F)cc1 (single isomer, unassigned) [Example 80, (2R or S)—N-{4-[4-(2,2-difluoroethoxy)-7-(pyridin-2-yl)-5H-pyrrolo[3,2-d]pyrimidin-6-yl]pyridin-2-yl}-4,4-difluoro-2-(4-fluorophenyl)butanamide]	> 20000 nM	16.9 nM	–
O=C(Nc1cc(-c2[nH]c3ccnnc3c2-c2ccccn2)ccn1)C(CC(F)F)c1ccc(F)cc1 (single isomer, unassigned) [Example 67, (2R or S)-4,4-difluoro-2-(4-fluorophenyl)-N-{4-[7-(pyridin-2-yl)-5H-pyrrolo[3,2-c]pyridazin-6-yl]pyridin-2-yl}butanamide]	> 20000 nM	22 nM	–
O=C(Nc1cc(-c2[nH]c3c(N4CCNCC4)ccnc3c2-c2ccccn2)ccn1)C(CC(F)F)c1ccc(F)cc1 (racemic) [Example 92, (2RS)-4,4-difluoro-2-(4-fluorophenyl)-N-{4-[7-(piperazin-1-yl)-3-(pyridin-2-yl)-1H-pyrrolo[3,2-b]pyridin-2-yl]pyridin-2-yl}butanamide]	–	2.35 nM	> 20000 nM
Cc1cnc2c(-c3ccccn3)c(-c3ccnc(NC(=O)C(CC(F)F)c4ccc(F)cc4)c3)[nH]c2n1 (stereo not drawn) [Example 85, 4,4-difluoro-2-(4-fluorophenyl)-N-{4-[3-methyl-7-(pyridin-2-yl)-5H-pyrrolo[2,3-b]pyrazin-6-yl]pyridin-2-yl}butanamide]	–	4.21 nM	> 20000 nM
